ChEMBL document CHEMBL1201862, “PubChem BioAssay data set” (2004)
Calls of active or inactive are those of the source.

Columns and labels:
[1] = molecular target: T1, Short transient receptor potential channel 4 (Mus musculus, UniProt Q9QUQ5); assay: mouse TRPC4 channel inhibitors, dose response, cell-based, HEK293 TRPC4/mu-opioid, Fluo-4 calcium (AID 434942); type: functional;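 note: potency of inhibitors blocking the TRPC4 calcium response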
T1 sequence (Q9QUQ5 whole entry): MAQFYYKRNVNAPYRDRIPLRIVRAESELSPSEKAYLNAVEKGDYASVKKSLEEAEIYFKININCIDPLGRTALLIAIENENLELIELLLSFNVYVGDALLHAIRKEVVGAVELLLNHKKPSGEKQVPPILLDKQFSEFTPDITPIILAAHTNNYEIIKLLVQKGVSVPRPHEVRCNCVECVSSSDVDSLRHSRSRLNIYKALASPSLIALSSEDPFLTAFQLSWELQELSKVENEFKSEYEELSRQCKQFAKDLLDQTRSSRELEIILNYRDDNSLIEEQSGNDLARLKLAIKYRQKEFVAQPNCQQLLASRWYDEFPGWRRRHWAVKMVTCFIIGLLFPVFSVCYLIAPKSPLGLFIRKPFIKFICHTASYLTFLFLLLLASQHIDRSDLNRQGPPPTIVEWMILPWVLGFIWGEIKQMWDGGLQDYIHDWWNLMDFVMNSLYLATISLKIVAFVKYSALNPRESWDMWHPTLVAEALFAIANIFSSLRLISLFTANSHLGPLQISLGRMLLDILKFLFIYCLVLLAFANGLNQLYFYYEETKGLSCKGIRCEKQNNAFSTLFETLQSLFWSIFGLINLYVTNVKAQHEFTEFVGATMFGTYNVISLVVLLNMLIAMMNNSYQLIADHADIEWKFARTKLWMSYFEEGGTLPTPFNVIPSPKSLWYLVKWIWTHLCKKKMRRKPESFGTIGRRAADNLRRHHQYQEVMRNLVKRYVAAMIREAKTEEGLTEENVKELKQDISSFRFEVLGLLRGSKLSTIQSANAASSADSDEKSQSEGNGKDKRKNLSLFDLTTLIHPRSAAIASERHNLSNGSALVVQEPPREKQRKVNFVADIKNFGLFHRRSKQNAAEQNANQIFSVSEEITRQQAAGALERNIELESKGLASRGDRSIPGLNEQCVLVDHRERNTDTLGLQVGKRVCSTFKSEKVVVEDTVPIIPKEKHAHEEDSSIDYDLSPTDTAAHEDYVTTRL

[2] = intracellular Trypanosoma cruzi inhibitors in host cells – cell-based, plate reader, cherry-pick samples, set 3, dose response (AID 651818); type: functional;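 note: compounds incubated with infected cells for about four days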
Cytochrome P450 3A4 = Cytochrome P450 3A4 (Homo sapiens, UniProt P08684);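 note: CYP3A4 tested as one member of a cytochrome P450 panel screen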
Cytochrome P450 2C19 = Cytochrome P450 2C19 (Homo sapiens, UniProt P33261); assay: Cytochrome panel assay with activity outcomes. Panel member name: p450-cyp2c19 Compounds with AC50 equal or less than 10 uM are considered active; type: functional; details: read-out: AC50
Cytochrome P450 2C19, sequence (P33261 whole entry): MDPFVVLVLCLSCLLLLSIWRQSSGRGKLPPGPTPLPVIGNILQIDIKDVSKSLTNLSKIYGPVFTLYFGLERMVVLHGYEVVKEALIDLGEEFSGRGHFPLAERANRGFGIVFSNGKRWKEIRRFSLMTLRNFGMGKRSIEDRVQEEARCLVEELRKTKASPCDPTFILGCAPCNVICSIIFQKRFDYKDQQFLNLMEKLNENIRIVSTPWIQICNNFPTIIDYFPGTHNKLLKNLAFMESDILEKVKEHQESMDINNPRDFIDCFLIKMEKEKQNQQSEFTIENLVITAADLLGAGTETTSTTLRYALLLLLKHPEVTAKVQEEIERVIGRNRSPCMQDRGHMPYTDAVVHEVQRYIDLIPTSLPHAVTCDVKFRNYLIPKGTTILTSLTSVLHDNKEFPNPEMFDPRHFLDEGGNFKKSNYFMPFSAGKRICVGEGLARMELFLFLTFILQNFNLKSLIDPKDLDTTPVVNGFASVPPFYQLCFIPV

Cytochrome P450 2C9 = Cytochrome P450 2C9 (Homo sapiens, UniProt P11712)
Cytochrome P450 2C9, sequence (P11712 whole entry): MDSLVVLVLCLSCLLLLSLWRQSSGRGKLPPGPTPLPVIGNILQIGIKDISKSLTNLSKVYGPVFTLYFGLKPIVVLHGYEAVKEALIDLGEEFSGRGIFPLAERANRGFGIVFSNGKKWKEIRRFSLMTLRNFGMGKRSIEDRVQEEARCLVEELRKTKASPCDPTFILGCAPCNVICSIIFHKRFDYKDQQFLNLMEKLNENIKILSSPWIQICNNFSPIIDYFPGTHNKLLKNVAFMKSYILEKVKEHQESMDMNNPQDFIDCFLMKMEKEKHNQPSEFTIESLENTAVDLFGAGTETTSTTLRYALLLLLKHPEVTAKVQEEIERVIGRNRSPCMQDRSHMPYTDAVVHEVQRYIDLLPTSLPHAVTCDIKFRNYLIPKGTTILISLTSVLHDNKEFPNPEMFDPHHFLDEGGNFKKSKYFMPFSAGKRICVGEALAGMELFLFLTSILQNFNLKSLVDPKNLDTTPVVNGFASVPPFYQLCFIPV

[3] = molecular target: T2, Corticotropin-releasing factor receptor 2/Corticotropin-releasing factor-binding protein (Homo sapiens, UniProt P24387+Q13324); assay: Dose Response confirmation of uHTS hits for small molecule antagonists of the CRF-binding protein and CRF-R2 receptor complex.; type: functional; details: read-out: IC50_Mean
T2 sequence (Q13324 whole entry): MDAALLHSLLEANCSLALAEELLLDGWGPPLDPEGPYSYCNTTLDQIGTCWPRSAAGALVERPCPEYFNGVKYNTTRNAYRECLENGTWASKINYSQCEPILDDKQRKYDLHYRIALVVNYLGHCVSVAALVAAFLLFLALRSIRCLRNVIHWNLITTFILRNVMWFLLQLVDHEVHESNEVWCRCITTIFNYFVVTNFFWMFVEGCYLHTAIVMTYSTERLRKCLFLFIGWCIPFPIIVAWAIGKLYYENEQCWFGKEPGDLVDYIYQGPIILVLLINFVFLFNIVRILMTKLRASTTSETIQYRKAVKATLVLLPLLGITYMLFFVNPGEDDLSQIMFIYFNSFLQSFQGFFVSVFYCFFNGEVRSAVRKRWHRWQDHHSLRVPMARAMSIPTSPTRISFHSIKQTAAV
T2 sequence (P24387 whole entry): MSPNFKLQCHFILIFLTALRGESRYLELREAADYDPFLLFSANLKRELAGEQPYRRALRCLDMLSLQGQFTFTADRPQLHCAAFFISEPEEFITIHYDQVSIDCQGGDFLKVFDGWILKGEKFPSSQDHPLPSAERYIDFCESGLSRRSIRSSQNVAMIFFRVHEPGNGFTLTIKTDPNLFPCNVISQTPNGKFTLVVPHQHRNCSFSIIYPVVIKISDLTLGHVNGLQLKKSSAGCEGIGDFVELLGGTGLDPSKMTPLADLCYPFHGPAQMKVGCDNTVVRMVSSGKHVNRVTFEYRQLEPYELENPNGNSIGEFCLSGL

[4] = molecular target: T2, Corticotropin-releasing factor receptor 2/Corticotropin-releasing factor-binding protein; assay: activators of CRF receptor 2 with binding protein – uHTS hits, confirmation (AID 602473); type: functional; details: read-out: EC50_Mean
[5] = molecular target: T1, Short transient receptor potential channel 4; assay: mouse TRPC4 channel activators, dose response, cell-based, HEK293 TRPC4/mu-opioid, Fluo-4 calcium (AID 434937); type: functional
Cytochrome P450 2D6 = Cytochrome P450 2D6 (Homo sapiens, UniProt P10635);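 note: CYP2D6 member of a cytochrome P450 panel assay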
Cytochrome P450 2D6, sequence (P10635 whole entry): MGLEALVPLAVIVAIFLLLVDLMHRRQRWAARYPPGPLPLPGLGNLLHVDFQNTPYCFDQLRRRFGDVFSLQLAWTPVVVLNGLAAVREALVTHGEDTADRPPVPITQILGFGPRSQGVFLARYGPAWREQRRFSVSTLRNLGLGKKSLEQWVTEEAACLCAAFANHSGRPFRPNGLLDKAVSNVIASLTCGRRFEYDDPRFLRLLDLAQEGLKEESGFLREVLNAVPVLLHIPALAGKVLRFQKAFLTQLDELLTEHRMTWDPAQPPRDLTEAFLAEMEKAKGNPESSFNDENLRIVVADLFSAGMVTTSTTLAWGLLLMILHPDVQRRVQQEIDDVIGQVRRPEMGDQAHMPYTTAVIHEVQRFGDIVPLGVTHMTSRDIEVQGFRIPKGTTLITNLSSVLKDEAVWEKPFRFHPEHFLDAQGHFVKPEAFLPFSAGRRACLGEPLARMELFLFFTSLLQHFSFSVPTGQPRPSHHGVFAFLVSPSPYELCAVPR

[6] = nonselective inhibitors of cellular cAMP signaling, dose response, counter-screen for MC4R biased antagonist project, cell-based, TR-FRET cAMP detection (AID 602305); type: functional;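 note: U2OS cells stimulated with forskolin near its EC80 as the cAMP inducer; potency is for inhibition of forskolin-stimulated cAMP signaling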
Melanocortin receptor 4 = Melanocortin receptor 4 (Homo sapiens, UniProt P32245); assay: MC4R antagonist potency on cAMP, dose response, cell-based, TR-FRET, biased antagonists (AID 602298); type: functional;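 note: antagonist potency against agonist-stimulated cAMP production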
Melanocortin receptor 4, sequence (P32245 whole entry): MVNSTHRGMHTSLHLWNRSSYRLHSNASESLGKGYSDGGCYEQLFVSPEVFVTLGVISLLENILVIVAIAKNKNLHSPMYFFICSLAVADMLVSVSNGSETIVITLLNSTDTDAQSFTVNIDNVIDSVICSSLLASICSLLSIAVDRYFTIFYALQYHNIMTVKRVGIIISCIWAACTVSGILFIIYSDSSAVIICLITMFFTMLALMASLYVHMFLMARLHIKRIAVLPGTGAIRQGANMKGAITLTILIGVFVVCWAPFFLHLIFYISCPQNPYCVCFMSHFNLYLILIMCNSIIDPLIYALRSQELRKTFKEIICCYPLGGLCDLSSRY

[7] = HepG2 cell cytotoxicity, dose response, cytotoxicity control for Shn3 inhibitor project, CellTiter-Glo, cherry-picked (AID 624134); type: functional, cell-based
[8] = Luminescence Cell-Based Dose Retest to Confirm Inhibitors of Cancer Stem Cells. [Related pubchem assays (depositor defined):AID2717, AID2721]; type: functional; details: Homo sapiens
Streptokinase A = molecular target: T3, Streptokinase A (Streptococcus pyogenes serotype M1, UniProt P10520); assay: S. pyogenes streptokinase expression inhibitors, potency, dose response, plasminogen activation absorbance, OD405 (AID 1914); type: functional, Streptococcus pyogenes M1 GAS;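 note: secreted streptokinase activity via plasminogen activation per viability signal from cell pellet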
T3 sequence (P10520 whole entry): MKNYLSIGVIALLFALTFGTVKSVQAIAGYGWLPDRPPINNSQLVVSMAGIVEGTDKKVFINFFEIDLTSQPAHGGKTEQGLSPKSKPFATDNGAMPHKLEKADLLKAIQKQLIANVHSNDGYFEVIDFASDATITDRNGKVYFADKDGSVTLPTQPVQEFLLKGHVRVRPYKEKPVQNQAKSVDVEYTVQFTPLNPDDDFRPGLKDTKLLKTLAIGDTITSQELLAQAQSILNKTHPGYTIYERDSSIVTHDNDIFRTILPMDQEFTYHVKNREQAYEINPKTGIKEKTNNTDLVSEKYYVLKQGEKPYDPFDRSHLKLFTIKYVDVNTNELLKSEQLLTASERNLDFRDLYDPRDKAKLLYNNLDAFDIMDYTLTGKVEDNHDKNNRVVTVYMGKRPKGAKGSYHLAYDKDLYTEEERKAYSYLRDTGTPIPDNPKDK

Streptococcus = assay: Group A Streptococcus viability loss, dose response, counter-screen for streptokinase expression inhibitor project, luminescence, BacTiterGlo (AID 1915); type: functional, organism-based; details: read-out: EC50;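 note: potency for reduction of bacterial viability or growth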
Paired box protein Pax-8 = Paired box protein Pax-8 (Homo sapiens, UniProt Q06710); assay: inhibitors of PAX8-driven TPO luciferase reporter, dose response, RMG-I cells, cherry-pick (AID 687027); type: functional, cell-based;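 note: luciferase reporter driven by Pax8 target thyroperoxidase promoter measured by SteadyGlo luminescence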
Paired box protein Pax-8, sequence (Q06710 whole entry): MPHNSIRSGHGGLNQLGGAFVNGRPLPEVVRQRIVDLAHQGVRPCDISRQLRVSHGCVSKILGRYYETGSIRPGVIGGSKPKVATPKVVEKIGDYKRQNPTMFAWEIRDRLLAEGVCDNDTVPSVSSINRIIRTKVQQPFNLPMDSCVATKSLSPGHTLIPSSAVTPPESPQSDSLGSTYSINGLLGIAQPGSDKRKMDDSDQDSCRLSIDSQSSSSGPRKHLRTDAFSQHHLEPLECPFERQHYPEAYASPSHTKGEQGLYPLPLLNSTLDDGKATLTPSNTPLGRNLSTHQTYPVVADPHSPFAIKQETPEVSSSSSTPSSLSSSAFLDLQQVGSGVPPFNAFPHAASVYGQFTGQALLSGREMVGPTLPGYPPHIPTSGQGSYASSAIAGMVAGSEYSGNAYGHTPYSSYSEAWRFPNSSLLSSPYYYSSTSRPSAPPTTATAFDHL

[9] = cytotoxicity toward NIH3T3 fibroblasts, dose response, counter-screen, cell-based, ATP luminescence, mouse fibroblasts (AID 2010); type: functional;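 note: cells exposed to compound for about 90 hours before reading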
[10] = inhibitors of intracellular T. cruzi replication, confirmation, NIH3T3 host cells, beta-gal luminescence (AID 2044); type: functional, cell-based;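 note: intracellular parasites grown in NIH/3T3 mouse fibroblasts as host cells; luminescent beta-galactosidase reporter signal from transgenic T. cruzi replicating inside host cells; inhibitors lower the luminescence signal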
[11] = Shn3 3'UTR reporter inhibitors, dose response, cell-based, Clone20 osteoblasts, firefly luciferase, cherry-picked (AID 624132); type: functional;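 note: firefly luciferase luminescence from reporter carrying the Shn3 3'UTR in osteoblasts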
[12] = test system: Streptococcus sp. 'group A'; assay: growth inhibition of control SK(-) GAS strain, dose response, counter-screen for streptokinase expression inhibitor project, luminescence, kanamycin, BacTiterGlo, confirmation (AID 1900); type: functional, organism-based
Fatty acid synthase [13] = molecular target: T4, Fatty acid synthase (Homo sapiens, UniProt P49327); assay: FAS thioesterase domain inhibitors, dose response, biochemical, endpoint fluorescence intensity, uHTS hits (AID 624327); type: functional;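 note: fluorescence from hydrolysis of an O-methyl fluorescein acyl ester substrate by the enzyme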
T4 sequence (P49327 whole entry, the tested form may be a part): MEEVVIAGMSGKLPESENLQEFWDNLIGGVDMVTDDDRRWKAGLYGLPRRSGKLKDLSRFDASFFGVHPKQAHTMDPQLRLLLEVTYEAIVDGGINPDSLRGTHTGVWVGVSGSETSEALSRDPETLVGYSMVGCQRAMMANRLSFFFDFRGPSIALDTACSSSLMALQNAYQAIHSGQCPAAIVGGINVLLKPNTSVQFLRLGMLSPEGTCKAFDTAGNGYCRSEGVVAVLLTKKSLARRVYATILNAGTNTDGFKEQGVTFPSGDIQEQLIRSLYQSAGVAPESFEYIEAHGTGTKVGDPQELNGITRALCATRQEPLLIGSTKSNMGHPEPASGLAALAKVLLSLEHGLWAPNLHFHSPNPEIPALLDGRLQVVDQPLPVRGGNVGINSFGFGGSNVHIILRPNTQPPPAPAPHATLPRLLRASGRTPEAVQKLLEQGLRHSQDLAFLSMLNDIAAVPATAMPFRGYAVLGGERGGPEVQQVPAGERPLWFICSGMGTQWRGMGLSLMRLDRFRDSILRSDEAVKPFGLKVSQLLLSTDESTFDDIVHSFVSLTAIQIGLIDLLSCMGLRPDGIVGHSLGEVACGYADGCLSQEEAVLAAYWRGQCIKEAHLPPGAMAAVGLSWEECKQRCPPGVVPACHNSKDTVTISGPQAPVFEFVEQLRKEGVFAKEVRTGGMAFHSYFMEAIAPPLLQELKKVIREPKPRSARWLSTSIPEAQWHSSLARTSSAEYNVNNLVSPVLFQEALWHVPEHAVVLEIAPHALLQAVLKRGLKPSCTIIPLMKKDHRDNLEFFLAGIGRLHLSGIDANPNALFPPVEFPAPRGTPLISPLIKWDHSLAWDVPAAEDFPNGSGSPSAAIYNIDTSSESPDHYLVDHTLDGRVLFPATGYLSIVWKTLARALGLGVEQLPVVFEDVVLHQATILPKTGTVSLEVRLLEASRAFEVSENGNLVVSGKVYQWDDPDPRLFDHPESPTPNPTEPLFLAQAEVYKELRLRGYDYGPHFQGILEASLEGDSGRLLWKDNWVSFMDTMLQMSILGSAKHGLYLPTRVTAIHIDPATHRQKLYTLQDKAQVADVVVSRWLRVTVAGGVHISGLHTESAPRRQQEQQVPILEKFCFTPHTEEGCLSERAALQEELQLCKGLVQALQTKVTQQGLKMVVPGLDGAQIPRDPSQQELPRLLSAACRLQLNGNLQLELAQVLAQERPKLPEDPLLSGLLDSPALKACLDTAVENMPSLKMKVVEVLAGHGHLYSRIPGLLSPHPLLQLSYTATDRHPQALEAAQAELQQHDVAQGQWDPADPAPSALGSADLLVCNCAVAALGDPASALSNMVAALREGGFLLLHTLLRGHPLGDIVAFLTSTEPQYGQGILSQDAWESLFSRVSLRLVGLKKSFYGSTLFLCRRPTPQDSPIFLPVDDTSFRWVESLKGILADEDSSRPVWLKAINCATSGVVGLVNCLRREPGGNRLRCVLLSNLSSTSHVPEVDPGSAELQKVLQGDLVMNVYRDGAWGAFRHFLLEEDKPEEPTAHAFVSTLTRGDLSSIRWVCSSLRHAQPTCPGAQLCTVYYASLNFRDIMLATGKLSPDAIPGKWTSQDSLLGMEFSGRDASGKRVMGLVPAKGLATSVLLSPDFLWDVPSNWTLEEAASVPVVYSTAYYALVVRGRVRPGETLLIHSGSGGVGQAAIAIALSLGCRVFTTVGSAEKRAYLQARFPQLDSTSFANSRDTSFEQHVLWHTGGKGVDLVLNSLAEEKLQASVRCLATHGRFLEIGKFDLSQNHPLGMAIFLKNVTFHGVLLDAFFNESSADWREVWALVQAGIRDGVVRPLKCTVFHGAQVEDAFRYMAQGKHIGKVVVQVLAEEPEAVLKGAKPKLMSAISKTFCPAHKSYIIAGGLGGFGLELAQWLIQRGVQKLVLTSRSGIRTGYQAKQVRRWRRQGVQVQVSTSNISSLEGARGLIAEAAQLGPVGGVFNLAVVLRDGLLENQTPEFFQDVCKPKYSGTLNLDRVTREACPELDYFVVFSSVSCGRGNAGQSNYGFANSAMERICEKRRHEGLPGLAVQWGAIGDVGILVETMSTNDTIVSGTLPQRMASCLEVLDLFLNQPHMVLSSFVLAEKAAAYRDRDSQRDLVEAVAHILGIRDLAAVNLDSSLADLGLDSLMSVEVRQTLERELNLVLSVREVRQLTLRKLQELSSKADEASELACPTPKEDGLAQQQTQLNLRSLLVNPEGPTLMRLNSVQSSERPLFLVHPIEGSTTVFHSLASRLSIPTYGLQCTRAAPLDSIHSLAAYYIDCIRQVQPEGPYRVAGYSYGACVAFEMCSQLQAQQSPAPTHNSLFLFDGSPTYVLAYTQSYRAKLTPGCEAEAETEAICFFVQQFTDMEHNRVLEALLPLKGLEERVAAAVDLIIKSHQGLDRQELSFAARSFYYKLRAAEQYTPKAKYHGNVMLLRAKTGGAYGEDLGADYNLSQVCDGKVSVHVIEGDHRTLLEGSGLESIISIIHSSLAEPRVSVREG

H9c2 = assay: cells; type: functional, cell-based; details: Rattus norvegicus, H9c2, Myocardium;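 note: confirmatory concentration-response retest of ultra-high-throughput screening hits for modulation of myocardial damage; cell death induced by hydrogen peroxide oxidative stress; compound pretreatment for 60 min then peroxide exposure for 2 h; potency is for protecting the cells against peroxide damage rather than for killing them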
Fatty acid synthase [14] = molecular target: T4, Fatty acid synthase; assay: FAS thioesterase domain inhibitors, dose response, biochemical, kinetic fluorescence intensity (AID 624326); type: functional;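 note: rate of fluorescence rise from hydrolysis of a fluorogenic O-methyl fluorescein ester substrate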
cells [15] = type: functional, cell-based
cells [16] = type: functional, cell-based; remark: listed apart in the source

CC(=O)Nc1ccc(S(=O)(=O)Nc2nc3ccc(C)cc3s2)cc1
EC50 [1]: 3.76 µM (active)

Cc1noc(C)c1S(=O)(=O)Nc1ccc2c(c1)CC(=O)N([C@@H](C)CO)C[C@H](C)[C@@H](CN(C)Cc1ccc(-c3ccccc3)cc1)O2
AC50 [2]: 4.33 µM (active)

N#Cc1nc(-c2ccc(F)cc2)oc1N1CCCC1
AC50 (Cytochrome P450 3A4): 14.1 µM (inconclusive) | AC50 (Cytochrome P450 2C19): 14.1 µM (inconclusive) | AC50 (Cytochrome P450 2C9): inconclusive

C[C@@H]1CN([C@@H](C)CO)C(=O)c2cccc(NC(=O)Nc3ccc(C(F)(F)F)cc3)c2O[C@@H]1CN(C)Cc1ccc(C(F)(F)F)cc1
AC50 [2]: 3.89 µM (active)

O=C(NCc1ccccc1)C1=C[C@H](c2ccccc2)C[C@H](OCc2ccc(CO)cc2)O1
IC50 [3]: > 47.1 µM (inactive) | EC50 [4]: > 53 µM (inactive) | EC50 [5]: 1.06 µM (active)

COc1ccc(C(=O)c2ccccc2)cc1Br
AC50 (Cytochrome P450 2D6): 22.4 µM (inconclusive) | AC50 (Cytochrome P450 2C9): inconclusive

CCN(CC)S(=O)(=O)c1ccc(Cl)c(C(=O)OC2CC(C)OC2=O)c1 (stereo unspecified)
IC50 [6]: > 64.6 µM (inactive) | IC50 (Melanocortin receptor 4): > 64.6 µM (inactive)

Brc1cc2c(cc1COc1ccc(-c3nn[nH]n3)cc1)OCO2
EC50 [1]: 5.31 µM (active)

Cc1nnsc1SCC(=O)O
AC50 (Cytochrome P450 2C9): inconclusive

Cc1cc(O)c(C(C)C)cc1C1(c2cc(C(C)C)c(O)cc2C)OC(=O)c2ccccc21
AC50 [7]: 18.8 µM (active) | IC50 [6]: > 64.6 µM (inactive) | AC50 [8]: 1.71 µM (active) | AC50 (Cytochrome P450 2D6): 3.98 µM (inconclusive) | EC50 (Streptokinase A): > 150 µM (not active) | IC50 (Melanocortin receptor 4): > 64.6 µM (inactive) | EC50 (Streptococcus): 3.87 µM (active) | AC50 (Paired box protein Pax-8): 8.19 µM (active) | EC50 [9]: > 60 µM (not active) | EC50 [10]: 2.11 µM (active) | AC50 [11]: 9.45 µM (active) | EC50 [12]: 1.24 µM (active)

Cc1ccc(-c2nnc3ccc(SCC(=O)N4CCCc5ccccc54)nn23)cc1
IC50 (Fatty acid synthase [13]): 4.07 µM (active) | IC50 (H9c2): 38.4 µM (inactive) | IC50 (Fatty acid synthase [14]): 5.68 µM (active)

COc1ccc2sc(-c3ccc(S(C)(=O)=O)cc3)c(-c3ccc(C(N)=O)cc3)c2c1
IC50 [6]: 25.1 µM (inactive) | IC50 (Melanocortin receptor 4): 11.5 µM (inactive)

CC(=O)C1=C(O)C(=O)N(Cc2ccccc2)C1c1ccc([N+](=O)[O-])cc1 (stereo unspecified)
EC50 [1]: 1.19 µM (active)

Cn1c(S)nnc1-c1cccc2ccccc12
EC50 [5]: 0.841 µM (active)

CC1CCCN(c2c([N+](=O)[O-])c(=O)oc3ccccc23)C1 (stereo unspecified)
EC50 (cells [15]): > 29.9 µM (inactive) | IC50 (cells [16]): > 29.9 µM (inactive)
